Results as given in US9309211B2, “Arylalkene derivatives and use thereof as selective estrogen receptor modulators” (Centaurus BioPharma Co., Ltd., priority 2011, dated 2016).
pIC50: −log10 of the molar value.

System: MCF-7
Test: Anti-tumor (MCF-7) test in nude mice
Assay type: in vivo
Conditions: 10 mg/kg PO, QD
Method: (§1) As shown in FIGURE and the table below, 21 days after the nude mouse was administered with Tamoxifen (20 mg/kg), the weight dropped by 20%, and a higher dose of 30 mg/kg of an exemplary compound of the present application, shown below as CT-946-01, led to a weight gain of 7%.

Row | SMILES | TGI (%) 21 days [%]
1 | CC/C(=C(\c1ccc(O)cc1)c1ccc(OCCN2CCOCC2)nc1)c1ccccc1 [CT-946-01] | 108

Same assay, conditions: 20 mg/kg PO, QD

Row | SMILES | TGI (%) 21 days [%]
2 | CC/C(=C(\c1ccccc1)c1ccc(OCCN(C)C)cc1)c1ccccc1 [Tamoxifen, reference compound] | 22.4

Same assay, conditions: 30 mg/kg PO, QD

Row | SMILES | TGI (%) 21 days [%]
3 | CC/C(=C(\c1ccc(O)cc1)c1ccc(OCCN2CCOCC2)nc1)c1ccccc1 [CT-946-01] | 104

System: not listed separately
Test: Weight change of nude mice during anti-tumor (MCF-7) test (toxicity)
Assay type: in vivo
Conditions: 10 mg/kg PO, QD; nude mice
Method: as §1

Row | SMILES | BW (% of vehicle)
4 | CC/C(=C(\c1ccc(O)cc1)c1ccc(OCCN2CCOCC2)nc1)c1ccccc1 [CT-946-01] | 104 % of vehicle

Same assay, conditions: 20 mg/kg PO, QD; nude mice

Row | SMILES | BW (% of vehicle)
5 | CC/C(=C(\c1ccccc1)c1ccc(OCCN(C)C)cc1)c1ccccc1 [Tamoxifen, reference compound] | 80.0 % of vehicle

Same assay, conditions: 20 mg/kg; 21 days after administration; nude mouse

Row | SMILES | weight dropped [%]
6 | CC/C(=C(\c1ccccc1)c1ccc(OCCN(C)C)cc1)c1ccccc1 [Tamoxifen, reference compound] | 20

Same assay, conditions: 30 mg/kg PO, QD; nude mice

Row | SMILES | BW (% of vehicle)
7 | CC/C(=C(\c1ccc(O)cc1)c1ccc(OCCN2CCOCC2)nc1)c1ccccc1 [CT-946-01] | 107 % of vehicle

Same assay, conditions: 30 mg/kg; 21 days after administration; nude mouse

Row | SMILES | weight gain [%]
8 | CC/C(=C(\c1ccc(O)cc1)c1ccc(OCCN2CCOCC2)nc1)c1ccccc1 [CT-946-01] | 7

System: MCF-7 cells
Test: In vitro growth inhibitory potency of anti-estrogen activity in MCF-7 cells
Assay type: cell-based, human
Conditions: Homo sapiens, MCF7, 168 h; in the presence of E2, 7 days, Cell Titre Glo
Method: In Vitro Growth Inhibitory Potency of Anti-Estrogen Activity in MCF-7 Cells:
The estrogen receptor α (ERα) high expression human breast cancer MCF-7 cells (#HTB-22, A.T.C.C.) were cultured in DMEM medium supplemented by 10% fetal bovine serum (Gibco®) and 10 μg/ml bovine insulin (Sigma®). The cells were maintained in 75 cm^2 cell culture flask (Corning®) filled with 15 ml medium, 95% air and 5% CO2. Cells were split twice a week in a single layer cell culture.
For experiments related to 17β-Estradiol (E2), cells at logarithm growing stage were pretreated for two days without E2, the phenol red DMEM medium was replaced by the phenol red free DMEM/F12 medium, and FBS was replaced by 10% charcoal stripped FBS to remove the steroid and greatly decrease the hormone levels. Cells were seeded in 96 well cell culture plates (Corning®) with 4×10^3/well density, cultured in E2 free DMEM/F12 medium at 37° C. for 24 hours, 95% air and 5% CO2. All the compounds were stocked in DMSO as 0.01 M, serial diluted by the culture medium and added to the cells in the presence of proper E2 concentration. The final concentrations of compounds and DMSO were 3×10^−10˜1×10^−5 M and 0.1%. Cells were incubated at 37° C. for 7 days, medium containing E2 and compounds were changed every two days to maintain the chemical activity.
7 Days later, the viable cell numbers were calculated by the ATP amount from the luciferase quantity measurement (Cell Titre Glo® luciferase kit, Promega®). This method can be used to evaluate the stimulating estrogenicity of estrogen dependent cell growth under the condition of E2 free. The estrogenicity was tested by percentage compared to the maximum growth stimulation (100%) by E2. In this study, the percentage antagonist effects were evaluated by compared to the complete inhibition (100%) at the dose of 1×10^−5 M. The inhibition curves were generated by the reading numbers with the program Prism® 5, IC50 values were calculated.

Row | pIC50 | SMILES
9 | > 7.00 | CC/C(=C(/c1ccc(O)cc1)c1ccc(OCCNC)cc1)c1ccc2oc(Cl)cc2c1
10 | > 7.00 | CCC(=C(c1ccc(O)cc1)c1ccc(O[C@@H]2CCNC2)cc1)c1ccccc1
11 | > 6.30 | CC/C(=C(/c1ccc(O)cc1)c1ccc(OCCNC)cc1)c1csc(Cl)c1
12 | > 7.00 | CC/C(=C(\c1ccc(O)cc1)c1ccc(OCCN2CCN(C)CC2)nc1)c1ccccc1
13 | > 7.00 | CCC(=C(c1ccc(O)cc1)c1ccc(OCCNC)c(F)c1)c1ccc2c(c1)CCO2
14 | > 7.00 | CCC(=C(c1ccc(OCCNC)cc1)c1ccc(O)c(F)c1)c1ccccc1
15 | > 7.00 | CCC(=C(c1ccc(O)cc1)c1ccc(OC2CCNC2)cc1)c1ccccc1 (centres unmarked)
16 | > 7.00 | CCC(=C(c1ccc(O)cc1)c1ccc(CCCNC)cc1)c1ccccc1
17 | > 7.00 | CCC(=C(c1ccc(O)cc1)c1ccc(OCCNC)cc1)c1ccsc1
18 | > 6.30 | CC/C(=C(\c1ccc(OC)cc1)c1ccc(OCCNC)cc1)c1ccc2oc(Cl)cc2c1
19 | > 7.00 | CCC(=C(c1ccc(O)cc1)c1ccc(OCCNC)c(F)c1)c1ccccc1
20 | > 7.00 | CCC(=C(c1ccc(O)cc1)c1ccc(OCCNC)cc1)c1ccc2c(c1)CCO2
21 | > 7.00 | CCC(=C(c1ccc(O)cc1)c1ccc(CCCN2CCCC2)nc1)c1ccccc1
22 | > 7.00 | CCC(=C(c1ccc(O)cc1)c1ccc(C#CCN2CCCC2)c(F)c1)c1ccccc1
23 | > 7.00 | CC/C(=C(/c1ccc(O)cc1)c1ccc(N(C)CCNC)nc1)c1ccccc1
24 | > 7.00 | CCC(=C(c1ccc(O)cc1)c1ccc(OCCN2CCN(C)CC2)cc1)c1ccc2oc(Cl)cc2c1
25 | > 7.00 | CC/C(=C(\c1ccc(O)cc1)c1ccc(OCCNC)cc1)C1CCC(=O)CC1
26 | > 7.00 | CCC(=C(c1ccc(O)cc1)c1ccc(OCC2CCCN2C)cc1)c1ccccc1 (centres unmarked)
27 | > 7.00 | CC/C(=C(/c1ccc(O)cc1)c1ccc(OCCNC)nc1)c1ccccc1
28 | > 7.00 | CCNCCOc1ccc(C(=C(CC)c2ccc3oc(Cl)cc3c2)c2ccc(O)cc2)cc1
29 | > 7.00 | CCC(=C(c1ccc(O)cc1)c1ccc(OC[C@@H]2CCCN2)cc1)c1ccccc1
30 | > 6.30 | CCC(=C(c1ccc(O)cc1)c1ccc(OCCN(C)C)cn1)c1ccccc1
31 | > 7.00 | CCC(=C(c1ccc(O)cc1)c1ccc(OCCN2CCCCCC2)cc1)c1ccc2oc(Cl)cc2c1
32 | > 7.00 | CC/C(=C(\c1ccc(O)cc1)c1ccc(OCCN(C)C)nc1)c1ccccc1
33 | > 7.00 | CCC(=C(c1ccc(O)cc1)c1ccc(OCCN(CC)CC)cc1)c1ccc2oc(Cl)cc2c1
34 | > 7.00 | CCC(=C(c1ccc(O)cc1)c1ccc(N(C)CCNC)nc1)c1ccc2oc(Cl)cc2c1
35 | > 7.00 | CC/C(=C(\c1ccc(O)cc1)c1ccc(OC2CCNC2)nc1)c1ccccc1 (centres unmarked)
36 | > 6.30 | CC/C(=C(/c1ccc(O)cc1)c1ccc(OCCNC)cc1)c1ccc(O)c(F)c1

Row | pIC50 | SMILES
37 | > 6.30 | CCC(=C(c1ccc(O)cc1)c1ccc(OCCNC)cc1)c1ccc(O)c(OC)c1
38 | > 7.00 | CC/C(=C(\c1ccc(O)cc1)c1ccc(OCCN2CCCCC2)nc1)c1ccccc1
39 | > 7.00 | CC/C(=C(\c1ccc(O)cc1)c1ccc(OCCN2CCCC2)nc1)c1ccccc1
40 | > 6.30 | CC/C(=C(\c1ccc(O)cc1)c1ccc(OCCNC)cc1)c1ccc(O)c(F)c1
41 | > 6.30 | CCC(=C(c1ccc(O)cc1)c1ccn(CCCN(C)C)c(=O)c1)c1ccccc1
42 | > 7.00 | CCC(=C(c1ccc(O)cc1)c1ccc(CCCNC)nc1)c1ccccc1
43 | > 7.00 | CCC(=C(c1ccc(O)cc1)c1ccc(OCCNC)nc1)c1ccc2oc(Cl)cc2c1
44 | > 7.00 | CCC(=C(c1ccc(O)cc1)c1ccc(SCCNC)nc1)c1ccc2oc(Cl)cc2c1
45 | > 7.00 | CCC(=C(c1ccc(O)cc1)c1ccc(OCCN2CCNCC2)cc1)c1ccc2oc(Cl)cc2c1
46 | > 7.00 | CCC(=C(c1ccc(O)cc1)c1ccc(OCCN2CCCCC2)cc1)c1ccc2oc(Cl)cc2c1
47 | > 7.00 | CCC(=C(c1ccc(O)cc1)c1ccc(OCCNC)cc1)c1ccc2oc(Cl)cc2c1 [drawing 331]
48 | > 6.30 | CCC(=C(c1ccc(O)cc1)c1ccc(OCCNC)cc1)C1CCC(O)CC1 (centres unmarked)
49 | > 7.00 | CC/C(=C(/c1ccc(O)cc1)c1ccc(OCCNC)cc1)c1ccc2[nH]ncc2c1
50 | > 7.00 | CC/C(=C(\c1ccc(O)cc1)c1ccc(OCCNC)nc1)c1ccccc1
51 | > 7.00 | CCC(=C(c1ccc(O)cc1)c1ccc(OCCNC)cc1)c1ccc2occc2c1
52 | > 7.00 | CCC(=C(c1ccc(O)cc1)c1ccc(OCCNC)c(Br)c1)c1ccccc1
53 | > 7.00 | CC/C(=C(\c1ccc(O)cc1)c1ccc(OCCNC)cc1)c1ccc2[nH]ncc2c1
54 | > 7.00 | CCC(=C(c1ccc(O)cc1)c1ccc(OCCN2CCOCC2)cc1)c1ccc2oc(Cl)cc2c1
55 | > 7.00 | CCC(=C(c1ccc(O)cc1)c1ccc(OCCNC)nc1)c1ccc2c(c1)CCO2
56 | > 7.00 | CCC(=C(c1ccc(O)cc1)c1ccc(CCCN2CCCC2)nc1)c1ccc2oc(Cl)cc2c1
57 | > 7.00 | CCC(=C(c1ccc(O)cc1)c1ccc(OCCNC)cc1)c1ccc2nsnc2c1
58 | > 7.00 | CNCCOc1ccc(C(=C(CCCl)c2ccc3c(c2)CCO3)c2ccc(O)cc2)cc1
59 | > 7.00 | CCC(=C(c1ccc(O)cc1)c1ccc(OCCN2CCCC2)cc1)c1ccc2oc(Cl)cc2c1
60 | > 7.00 | CCC(=C(c1ccc(O)cc1)c1ccc(CCCN2CCCC2)cc1)c1ccccc1
61 | > 7.00 | CC/C(=C(\c1ccc(O)cc1)c1ccc(SCCNC)nc1)c1ccccc1
62 | > 7.00 | CCC(=C(c1ccc(O)cc1)c1ccc(OCCN(C)C)cc1)c1ccc2oc(Cl)cc2c1
63 | > 7.00 | CCC(=C(c1ccc(O)cc1)c1ccc(CCCN(C)C)nc1)c1ccccc1

Row | SMILES | pIC50
64 | CC/C(=C(\c1ccc(O)cc1)c1ccc(OCCN2CCOCC2)nc1)c1ccccc1 [drawing 318] | > 7.00

Same assay, conditions: in the presence of E2, 7 days, Cell Titre Glo

Row | pIC50 | SMILES
65 | > 7.00 | CCC(=C(c1ccc(O)cc1)c1ccc(OCCNC)cc1)c1ccc2oc(Cl)cc2c1 [drawing 303]
